Reference: PubChem BioAssay (NCI)
Several values for one entry are separate records, joined by “and”; a condition that tells them apart may be missing. Equal entries are not always repeated.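 Dose response: 5 concentrations. Exposure: 48 h. Format: 96-well plates. Endpoint: linear interpolation; highest concentration if not reached. At the GI50, growth is halved. Definition used: TGI = concentration required for complete inhibition of growth.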

Columns and labels:
Test in all cases: NCI tumour cell line growth inhibition, 48 h
HCT-15 colon = tested on: HCT-15 colon
MOLT-4 leukemia = tested on: MOLT-4 leukemia
NCI-H460 lung = tested on: NCI-H460 lung
OVCAR-5 ovarian = tested on: OVCAR-5 ovarian
SK-MEL-2 melanoma = tested on: SK-MEL-2 melanoma
SK-OV-3 ovarian = tested on: SK-OV-3 ovarian
SN12C renal = tested on: SN12C renal
SNB-19 CNS = tested on: SNB-19 CNS
SNB-75 CNS = tested on: SNB-75 CNS
RPMI-8226 leukemia = tested on: RPMI-8226 leukemia

SMILES | GI50 (HCT-15 colon) [µM] | TGI (HCT-15 colon) [µM] | GI50 (MOLT-4 leukemia) [µM] | TGI (MOLT-4 leukemia) [µM] | GI50 (NCI-H460 lung) [µM] | TGI (NCI-H460 lung) | GI50 (OVCAR-5 ovarian) [µM] | TGI (OVCAR-5 ovarian) | GI50 (SK-MEL-2 melanoma) [µM] | TGI (SK-MEL-2 melanoma) [µM] | GI50 (SK-OV-3 ovarian) [µM] | TGI (SK-OV-3 ovarian) [µM] | GI50 (SN12C renal) [µM] | TGI (SN12C renal) [µM] | GI50 (SNB-19 CNS) [µM] | TGI (SNB-19 CNS) | GI50 (SNB-75 CNS) [µM] | TGI (SNB-75 CNS) [µM] | GI50 (RPMI-8226 leukemia) [µM] | TGI (RPMI-8226 leukemia) [µM]
CCN(CC)Cc1cc(Nc2c3ccc(Cl)cc3nc3c(C)cccc23)ccc1O | 1.15 | 2.87 | 0.855 | 10.9 | 1.16 | 2.7 µM | 2.1 | 4.86 µM | 1.94 | 3.73 | 1.78 | 3.33 | 1.36 | 2.92 | 1.45 | 3.29 µM | 1.5 | 2.84 |  | 
Cc1c(-c2ccnc(N)n2)c2c(n1-c1ccccc1)C(=O)c1ccccc1C2=O | 16 | > 100 |  |  | 17.6 | 60 µM | 23.4 | 97.5 µM | 22.9 | 57.2 | 39.3 | > 100 | 14.7 | 53.8 | 70 | > 100 µM | 30 | > 100 | > 100 | > 100
COc1cc2cc(C(=O)N3C[C@H](CCl)c4c3cc(O)c3ccccc43)[nH]c2c(OC)c1OC | 0.022 |  | < 0.01 | 6.22 | < 0.01 | 4.34 µM and 23.5 µM | 0.0237 | 2.15 µM and 13.7 µM |  | 0.461 |  |  |  |  | 0.0391 | 1.42 µM and 1.67 µM |  | 0.449 | < 0.01 | 
Clc1cc(-c2csc(Cl)c2)cs1 |  | > 100 |  | > 100 |  | > 100 µM |  | > 100 µM |  | > 100 |  |  |  | > 100 |  | > 100 µM |  | > 100 |  | > 100
CC1CCCc2c(CC3CC(=O)NC(=O)C3)nc(N)nc21 (stereo not given) |  | > 100 |  | > 100 |  |  |  | > 100 µM |  | > 100 |  | > 100 |  | > 100 |  |  |  | > 100 |  | > 100
c1ccc2c(Nc3ccc4c(c3)OCO4)c3ccoc3nc2c1 | 14.7 | 45.6 | 5.69 | > 100 | 16.5 | > 100 µM | 25.9 | 60.9 µM | 26.4 | > 100 | 22.7 | 99.7 | 24.2 | 82.1 | 26.5 | 81.3 µM |  |  | 3.26 | 25.6
O=C1CCC(=O)C(C(=O)CCC(=O)Nc2ccc(Cl)cc2)C1 (stereo not given) |  | > 100 |  | > 100 |  | > 100 µM |  | > 100 µM |  | > 100 |  | > 100 |  | > 100 |  | > 100 µM |  |  |  | > 100
N#CCCCCCn1c2ccccc2c2c3c(c4c5ccccc5[nH]c4c21)C(=O)N(O)C3=O | 2.15 | 7.82 | 0.37 | 4.33 | 1.19 | 4.96 µM |  |  | 1.83 | 4.67 | 2.55 | 19.4 | 1.29 | 4.92 | 0.959 | > 100 µM | 0.684 | 9.55 | 1.04 | 3.47
